This is an account of results in ChEMBL document CHEMBL5126563, “Design, synthesis, in silico studies, and antiproliferative evaluations of novel indolin-2-one derivatives containing 3-hydroxy-4-pyridinone fragment” (Bioorg Med Chem Lett, 2022).

What all share (assay type): functional, cell-based
For assay [1], the system named is K562. As to the kind of experiment: Cytotoxicity against human K562 cells measured after 48 hrs by MTT assay. The following applies: K562, 48 h.
Assay [2] relates to A549. As to the kind of experiment: Cytotoxicity against human A549 cells measured after 48 hrs by MTT assay. The conditions noted are these: A549, 48 h. In general terms: Formazan colour is commonly taken as a measure of viable cells.
Assay [3] relates to MOLM-13. As to the kind of experiment: Cytotoxicity against human MOLM-13 cells measured after 48 hrs by MTT assay. The conditions noted are these: MOLM-13, 48 h.
The test system of assay [4] is MCF7. As to the kind of experiment: Cytotoxicity against human MCF7 cells measured after 48 hrs by MTT assay. The following applies: MCF7, 48 h.

A word on the EC50: it is the concentration giving half of the maximal effect.

For the molecule `Cc1c(O)c(=O)ccn1CC(=O)N/N=C1\C(=O)N(CC(=O)Nc2ccc(Cl)cc2Cl)c2ccccc21`, the EC50 was 1.81 µM in assay [1], 61.5 µM in assay [2], 1.62 µM in assay [3] and 43.2 µM in assay [4].

Consider `Cc1c(O)c(=O)ccn1CC(=O)N/N=C1\C(=O)N(CC(=O)Nc2ccccc2Cl)c2ccccc21`, for which the EC50 in assay [2] was > 100 µM; in assay [4], 46.4 µM.

As to `Cc1c(O)c(=O)ccn1CC(=O)N/N=C1\C(=O)N(CC(=O)Nc2ccc(Cl)cc2)c2ccccc21`, the results for the EC50 in assay [2] and in assay [4] were 28.3 µM and 31.4 µM, respectively.

Consider `C#Cc1cccc(Nc2ncnc3cc(OCCOC)c(OCCOC)cc23)c1` [ERLOTINIB], for which the figures for the EC50 in assay [2] and in assay [4] were 0.29 µM and 2.83 µM, respectively.

As to `Cc1ccc(NC(=O)CN2C(=O)/C(=N\NC(=O)Cn3ccc(=O)c(O)c3C)c3ccccc32)cc1`, the 50% effective concentration (EC50) stood at 47.5 µM in assay [2] and 52.2 µM in assay [4].

For `Cc1c(O)c(=O)ccn1CC(=O)N/N=C1\C(=O)N(CC(=O)Nc2cc(Cl)cc(Cl)c2)c2ccccc21`, the half-maximal effective concentration (EC50) in assay [1] stood at 1.22 µM; in assay [2] it was 22.1 µM; in assay [3], 0.69 µM; in assay [4] it was 35.1 µM.

In the case of `Cc1c(O)c(=O)ccn1CC(=O)N/N=C1\C(=O)N(CC(=O)Nc2cccc(Cl)c2)c2ccccc21`, the EC50 worked out at 28 µM in assay [2] and 34.6 µM in assay [4].

As for `COc1ccc(NC(=O)CN2C(=O)/C(=N\NC(=O)Cn3ccc(=O)c(O)c3C)c3ccccc32)cc1`, the concentration for a half-maximal effect (EC50) was 78 µM in assay [2] and > 100 µM in assay [4].

With `Cc1c(O)c(=O)ccn1CC(=O)N/N=C1\C(=O)N(CC(=O)Nc2ccc(Br)cc2)c2ccccc21`, the EC50 in assay [1] worked out at 1.85 µM; in assay [2], 29.3 µM; in assay [3] it was 1.17 µM; in assay [4], 32.5 µM.

Regarding `N#Cc1cc2cc(CN3CCC(Nc4ncnc5sc(CC(F)(F)F)cc45)CC3)c(O)cc2n1Cc1cn[nH]c1`, the values for the half-maximal effective concentration (EC50) in assay [1] and in assay [3] were 2.7 µM and 0.14 µM, respectively.

For the molecule `Cc1c(O)c(=O)ccn1CC(=O)N/N=C1\C(=O)N(CC(=O)Nc2ccccc2)c2ccccc21`, the EC50 in assay [2] is 29.2 µM; in assay [4] it was 48.4 µM.

`Cc1cccc(NC(=O)CN2C(=O)/C(=N\NC(=O)Cn3ccc(=O)c(O)c3C)c3ccccc32)c1C`: the results for the EC50 in assay [2] and in assay [4] were 39.2 µM and 51.9 µM, respectively.

Take `CC(=O)Nc1ccc(NC(=O)CN2C(=O)/C(=N\NC(=O)Cn3ccc(=O)c(O)c3C)c3ccccc32)cc1`: the figures for the EC50 in assay [2] and in assay [4] were > 100 µM and 51.9 µM, respectively.
